{"source": "patent US11547722B2", "about": "“Bactericides and antifungal agents” (priority 2017, dated 2023)", "key": {"[1]": {"tested_on": "MSSA (Meticillin Sensitive Staphylococcus aureus, ATCC 29213)", "assay": "MIC test on MSSA bacteria (serial two-fold dilution, 96-well plate)"}, "[2]": {"tested_on": "MRSA (Meticillin Resistant Staphylococcus aureus, ATCC 43300)", "assay": "MIC test on MRSA bacteria (serial two-fold dilution, 96-well plate)"}, "[3]": {"assay": "Aqueous solubility of metal sulfides without and with solubilizing additive", "description": "Mix the 90 mL of the SO4Cu solution with 10 mL of the Na2S solution. […] Separate it by filtration.\nPlace this precipitate in 100 mL of water in a stirred container.\nWith constant stirring, drop a very concentrated solution of NH3 into the water very slowly.\nMix the 97 mL of the NO3Ag solution with 3 mL of the Na2S solution. […] Separate it by filtration.\nWith constant stirring, drop very slowly a concentrated solution of ammonium citrate (NH4)5(C6H4O7)2H3.\nDissolve 77 mg of Cl3Au in 95 mL of water. Mix the 95 mL of the Cl3Au solution with 5 mL of the Na2S solution. […] Separate it by filtration.\nWhile stirring constantly, drop a very concentrated solution of potassium dichromate very slowly."}, "[4]": {"details": "aqueous solutions, 24 h at 37° C."}}, "note": "Like-named read-outs stand apart in the source and are kept apart here.", "data": [{"compound": "Cc1onc(-c2ccccc2)c1C(=O)N[C@@H]1C(=O)N2[C@@H]1SC(C)(C)[C@@H]2C(=O)O", "note": "[Oxacilline, reference compound]", "values": [{"measurement": "MIC", "setting": "[1]; Staphylococcus aureus, 24 h, read-out: MIC MSSA", "result": 0.25, "unit": "µg/mL"}, {"measurement": "MIC", "setting": "[2]; Staphylococcus aureus, 24 h, read-out: MIC MRSA", "result": 256, "unit": "µg/mL"}]}, {"compound": "[Au+3].[Au+3].[S-2].[S-2].[S-2]", "note": "[S3Au2, gold sulfide]", "values": [{"measurement": "aqueous Au concentration reached", "setting": "[3]; addition of potassium dichromate alone or an equimolar mixture of potassium dichromate and ammonia", "result": "at least 0.2 g/l"}, {"measurement": "aqueous concentration in Au reached", "setting": "[3]; addition of potassium dichromate, or potassium dichromate and ammonia, Example 3", "result": "at least 0.2 g.l^−1"}, {"measurement": "maximum concentration in aqueous solution", "setting": "[3]; without additive", "result": "undetectable"}, {"measurement": "maximum concentration in water", "setting": "[3]; without additive, Examples 1 and 3", "result": "undetectable"}]}, {"compound": "O=S(=O)([O-])[O-].[Cu+2]", "note": "[V, copper sulfate]", "values": [{"measurement": "MIC MSSA", "setting": "[1]; [4]", "result": 78, "unit": "µg/mL"}, {"measurement": "MIC MRSA", "setting": "[2]; [4]", "result": "78 to 157", "unit": "µg/mL"}]}, {"compound": "copper sulfide [SCu]", "values": [{"measurement": "aqueous concentration in Cu reached", "setting": "[3]", "result": "at least 0.2 g.l^−1"}, {"measurement": "aqueous concentration of Cu reached", "setting": "[3]", "result": "≥ 0.2", "unit": "g/L"}, {"measurement": "maximum concentration in aqueous solution", "setting": "[3]", "result": 0.33, "unit": "mg/L"}, {"measurement": "maximum concentration in water", "setting": "[3]", "result": 0.33, "unit": "mg/L"}]}]}
